Source: PubChem BioAssay (NCI)
Several values for one entry are separate records, joined by “and”; a condition that tells them apart may be missing. Identical values can stand only once.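 All cell lines were grown in 96-well plates and treated with compound for 48 hours. GI50 marks 50% less growth. TGI is the concentration that stops growth completely.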

Tests used:
Experiment in all cases: growth of human tumour cells (NCI), 48 h
NCI-H226 lung = system: NCI-H226 lung
M14 melanoma = system: M14 melanoma
NCI-H522 lung = system: NCI-H522 lung
786-0 renal = system: 786-0 renal
HCC-2998 colon = system: HCC-2998 colon
RXF 393 renal = system: RXF 393 renal
OVCAR-5 ovarian = system: OVCAR-5 ovarian
HT29 colon = system: HT29 colon
OVCAR-3 ovarian = system: OVCAR-3 ovarian
SNB-75 CNS = system: SNB-75 CNS

Structure (SMILES)	GI50 (NCI-H226 lung) [µM]	TGI (NCI-H226 lung)	GI50 (M14 melanoma) [µM]	TGI (M14 melanoma)	GI50 (NCI-H522 lung) [µM]	TGI (NCI-H522 lung)	GI50 (786-0 renal) [µM]	TGI (786-0 renal)	GI50 (HCC-2998 colon) [µM]	TGI (HCC-2998 colon)	GI50 (RXF 393 renal) [µM]	TGI (RXF 393 renal)	GI50 (OVCAR-5 ovarian) [µM]	TGI (OVCAR-5 ovarian)	GI50 (HT29 colon) [µM]	TGI (HT29 colon) [µM]	GI50 (OVCAR-3 ovarian) [µM]	TGI (OVCAR-3 ovarian)	GI50 (SNB-75 CNS) [µM]	TGI (SNB-75 CNS) [µM]
COC(=O)[C@H](C)NC(=O)NC(=O)NC(=O)CI	19.8	44.9 µM	11.8	27.5 µM	1.96	3.68 µM	17.3	32.1 µM	17.3	33.6 µM	12.5	25.5 µM	16.7	36 µM	18.1	36.4	12.3	25.2 µM	15.9	30.3
CCOC(=O)C1=C(C)N(NC(=O)Nc2ccccc2)C(=O)C1=P(c1ccccc1)(c1ccccc1)c1ccccc1	–	> 100 µM	–	> 100 µM	–	63.8 µM	–	> 100 µM	–	> 100 µM	–	72.5 µM	–	> 100 µM	–	> 100	–	> 100 µM	–	> 100
COc1cc2ncnc(Nc3ccc(C)c(O)c3)c2cc1OC	20.5	> 25 µM	18.8	> 25 µM	2.83	> 18.6 µM	11.4	> 25 µM	> 25	> 25 µM	5.48	19.2 µM	16.2	> 25 µM	14.7	> 25	8.94	> 25 µM	4.9	> 24
Oc1ccccc1C(Sc1nc2ccccc2s1)Sc1nc2ccccc2s1	–	> 100 µM	–	> 100 µM	–	56.8 µM	–	> 100 µM	–	> 100 µM	–	> 100 µM	–	> 100 µM	–	> 100	–	> 100 µM	–	> 100
COC1(OC)C2(Cl)C(Cl)=C(Cl)C1(Cl)C1C=CC=CC12 (configuration not stated)	–	> 100 µM	–	> 100 µM	–	> 100 µM	–	> 100 µM	–	> 100 µM	–	> 100 µM	–	> 100 µM	–	> 100	–	> 100 µM	–	> 100
Cc1nc(N)sc1C(=O)/C=C\c1ccc2c(c1)OCO2	–	> 100 µM	–	> 100 µM	–	> 100 µM	–	> 100 µM	–	> 100 µM	–	> 100 µM	–	> 100 µM	–	> 100	–	> 100 µM	–	> 100
O=C(O)C1OC(n2cc(F)c(=O)[nH]c2=O)CC1O (configuration not stated)	–	> 100 µM	–	> 100 µM	–	> 100 µM	–	> 100 µM	–	> 77.4 µM	–	> 100 µM	–	> 100 µM	–	> 100	–	> 100 µM	–	> 100
NC(N)=N/N=C(\c1nc2ccc([N+](=O)[O-])cc2[nH]c1=O)C(O)c1ccc([N+](=O)[O-])cc1 (configuration not stated)	–	> 100 µM	–	> 100 µM	–	89.6 µM	–	> 100 µM	–	79.8 µM	–	> 100 µM	–	> 100 µM	–	> 100	–	> 100 µM	–	> 100
CS/C(N)=N\NC(=O)CCC(=O)Nc1ccccc1C(F)(F)F	–	> 100 µM	–	> 100 µM	–	> 100 µM	–	> 100 µM	–	> 100 µM	–	> 100 µM	–	> 100 µM	–	> 100	–	> 100 µM	–	> 83.1
Nn1c(=O)n(Cc2ccccc2)n(-c2ccccc2)c1=O	–	> 100 µM	–	> 100 µM	–	> 100 µM	–	> 100 µM	–	> 100 µM	–	> 100 µM	–	> 100 µM	–	> 100	–	> 100 µM	–	> 100
CN1CCN(CCCOc2ccc3nc(Nc4ccc(Cl)c(C(F)(F)F)c4)ccc3c2)CC1	22.2	57.1 µM	12.7	26.1 µM	14.1	28.1 µM	13.9	28.2 µM	14.8	30.4 µM	12.7	28 µM	17	35.4 µM	2.67	8.38	12.5	25.8 µM	7.09	20.5
N=C1C(c2nc3ccccc3s2)=C(O)CN1c1cc(C(F)(F)F)ccc1Cl	2.75	28.5 µM	3.21	11.1 µM	9.49	> 100 µM	38.1	> 100 µM	2.73	16.3 µM	18	> 100 µM	70.2	> 100 µM	25.8	> 100	4.47	40.4 µM	24.1	> 100
COC(=O)[C@@H](C)CNS(=O)(=O)N(c1cc(C(F)(F)F)cc(C(F)(F)F)c1)C1CCN(Cc2ccc(F)cc2)CC1	13.2	30.2 µM	3.75	15 µM	14.9	37 µM	11.2	24 µM	3.01	11.7 µM	10.6	23.7 µM	15.8	29.7 µM	3.78	14.6	10.4	23 µM	6.24	20.4
COc1cccc2c1C(=O)c1c(O)c3c(c(O)c1C2=O)C[C@@](O)(C(C)=O)C[C@@H]3OC1OC(C)C(O)C(N)C1Br (some centres not stated)	0.0134	0.0714 µM and 0.0818 µM	0.0535	0.257 µM and 0.669 µM	0.0563	0.449 µM and 0.324 µM	0.0178	0.62 µM and 0.168 µM	0.168	0.327 µM and 0.489 µM	–	0.661 µM and 0.864 µM	0.0554	0.663 µM and 0.704 µM	–	0.573	0.178	0.364 µM and 0.584 µM	0.151	–
CCOC(=O)CC1(C(=O)OCC)c2[nH]c3ccccc3c2CCN1Cc1ccccc1 (configuration not stated)	–	35.5 µM	–	35.8 µM	–	28.1 µM	–	31.8 µM	–	28.9 µM	–	32.7 µM	–	39.5 µM	–	29.8	–	27.4 µM	–	45.8
OC[C@H]1CCCC1O (some centres not stated)	–	> 100 µM	–	> 100 µM	–	> 100 µM	–	> 100 µM	–	> 100 µM	–	> 100 µM	–	> 100 µM	–	> 100	–	> 100 µM	–	> 100

Structure (SMILES)	GI50 (NCI-H226 lung) [µM]	TGI (NCI-H226 lung)	GI50 (M14 melanoma) [µM]	TGI (M14 melanoma)	GI50 (NCI-H522 lung) [µM]	TGI (NCI-H522 lung)	GI50 (786-0 renal) [µM]	TGI (786-0 renal)	GI50 (HCC-2998 colon) [µM]	TGI (HCC-2998 colon)	GI50 (RXF 393 renal) [µM]	TGI (RXF 393 renal)	GI50 (OVCAR-5 ovarian) [µM]	TGI (OVCAR-5 ovarian)	GI50 (HT29 colon) [µM]	TGI (HT29 colon) [µM]	GI50 (OVCAR-3 ovarian) [µM]	TGI (OVCAR-3 ovarian)	GI50 (SNB-75 CNS) [µM]	TGI (SNB-75 CNS) [µM]
COc1ccc(-c2n[nH]nc2-c2cc(OC)c(OC)c(OC)c2)cc1	< 0.0225	82.7 µM	< 0.01	17.8 µM	< 0.01	< 0.01 µM	< 0.01	17.5 µM	0.0189	19.5 µM	< 0.01	26.2 µM	< 0.01	> 100 µM	< 0.01	0.0481	< 0.01	< 0.01 µM	< 0.01	92.9
COC(=O)C1=C(C)N(NC(=O)OC(C)(C)C)C(=O)C1=P(c1ccccc1)(c1ccccc1)c1ccccc1	–	> 100 µM	–	> 100 µM	–	> 100 µM	–	> 100 µM	–	> 100 µM	–	> 100 µM	–	> 100 µM	–	> 100	–	> 100 µM	–	> 100
COc1ccccc1CNCCCN1C(=O)c2ccc3c4c(ccc(c24)C1=O)C(=O)N(CCCOCCCCOCCCN)C3=O	1.56	3.02 µM	1.42	4.82 µM	0.802	2.18 µM	1.53	3.84 µM	0.625	2.02 µM	0.771	2.2 µM	1.88	3.61 µM	0.402	1.29	0.297	0.754 µM	1.79	3.6
C=C1C(=O)O[C@@H]2/C=C(\C)CC/C=C(/COC(C)=O)C[C@@H](OC(C)=O)[C@@H]12	–	64.1 µM	–	27.1 µM	–	3.2 µM	–	17.7 µM	–	30.2 µM	–	24.2 µM	–	34.6 µM	–	> 40.9	–	14.2 µM	–	> 100
CC(C)n1nc(-c2cc3cc(O)ccc3[nH]2)c2c(N)ncnc21	0.117	1.31 µM	0.151	1.8 µM	0.0974	2.02 µM	0.294	2.88 µM	0.572	17.8 µM	0.121	0.661 µM	0.244	8.98 µM	0.465	28.7	0.22	2.75 µM	0.0377	0.502
O=C(N/N=C/c1ccccc1)c1c(-c2cccnc2)cnc2ccccc12	–	> 100 µM	–	> 100 µM	–	> 100 µM	–	> 100 µM	–	> 100 µM	–	> 100 µM	–	> 100 µM	–	> 100	–	> 100 µM	–	> 100
Oc1cccnc1CN1CCCCC1	–	> 100 µM	–	> 100 µM	–	> 100 µM	–	> 100 µM	–	> 100 µM	–	> 100 µM	–	> 100 µM	–	> 100	–	> 100 µM	–	> 100
NCCCCN(CCCN)/[N+]([O-])=N\O	–	> 100 µM	–	> 100 µM	–	> 100 µM	–	> 100 µM	–	> 100 µM	–	> 100 µM	–	> 100 µM	–	> 100	–	> 100 µM	–	> 100
CC(C)C(Nc1c2ccccc2nc2ccccc12)C(=O)O (configuration not stated)	–	> 100 µM	–	> 100 µM	–	> 100 µM	–	> 100 µM	–	> 100 µM	–	> 100 µM	–	> 100 µM	–	> 100	–	> 100 µM	–	> 100
COc1ccc(Cn2cc3c(c2-c2ccccc2)CC(C)(C)c2cnoc2-3)cc1	4.19	> 100 µM	2.03	> 100 µM	0.314	1.9 µM	4.1	> 100 µM	2.91	> 100 µM	2.45	> 100 µM	4.39	> 100 µM	0.95	7.53	0.662	3.28 µM	1.63	6.15
N#C/C(=C1C=C(Br)/C(=N\O)C=C\1Cl)c1cccc2ccccc12	–	6.54 µM	–	11.7 µM	–	6.47 µM	–	13.6 µM	–	17.7 µM	–	4.44 µM	–	18 µM	–	6.79	–	9.39 µM	–	0.79
CC(=O)[O-].CCN(CC)c1ccc(C=NCCN=Cc2ccc(N(CC)CC)cc2[O-])c([O-])c1.[Mn+3]	64.4	> 100 µM	19.2	35.5 µM	43.3	61.9 µM	38.7	> 100 µM	19.7	35.9 µM	20.5	46.5 µM	21.3	41 µM	19.9	40.1	21	44.1 µM	22.1	58.2
CN(C)C(=O)c1cc2cnc(Nc3ccc(-c4csc5c(=S)cc(N6CCOCC6)oc45)cc3)nc2n1C1CCCC1	0.405	> 11.9 µM	0.838	> 50 µM	1.3	> 50 µM	0.63	> 50 µM	0.932	> 50 µM	0.139	0.495 µM	0.485	> 50 µM	0.515	> 50	0.91	> 50 µM	0.314	2.04
COc1cc(-c2ccc3c(c2)NC(=O)/C3=C\c2ccc[nH]2)ccc1O	2.06	> 50 µM	0.0176	> 50 µM	0.00747	> 50 µM	0.0385	> 21.1 µM	0.0981	1.84 µM	0.0234	1.66 µM	0.799	> 50 µM	1.05	> 50	0.0176	> 50 µM	0.0201	> 50
Cn1c(=O)c(C(c2ccc([N+](=O)[O-])cc2)c2c(O)c3ccccc3n(C)c2=O)cc2ccccc21 (configuration not stated)	–	64 µM	–	> 100 µM	–	> 100 µM	–	> 100 µM	–	> 100 µM	–	> 100 µM	–	92.7 µM	–	> 100	–	> 100 µM	–	85.1
Cn1c2c(c3ccccc31)CC1c3c(c4ccccc4n3C)CC21 (configuration not stated)	–	> 100 µM	–	> 100 µM	–	> 100 µM	–	> 100 µM	–	> 100 µM	–	> 100 µM	–	> 100 µM	–	> 100	–	> 100 µM	–	> 100
